How the values were obtained:
HEK293 cells [1] = assay: Preliminary screening as mRNA vectors, EGFP mRNA transfection of HEK293 cells; format: cell-based; details: HEK293 cells, 96-well plates, EGFP mRNA 50 ng per well; percentage of GFP fluorescent cells relative to total number of cells (Hoechst)
Method in brief: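 Each well of HEK293 cells received 50 ng of EGFP mRNA. Efficiency was expressed as percent GFP-expressing cells over Hoechst-defined total cell number.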

HEK293 cells [2] = assay: Preliminary screening as DNA vectors, GFP transfection of HEK293 cells; format: cell-based; details: HEK293 cells; lipid/DOPE liposome with 75 ng plasmid DNA (psin-EGFP-IRES-Puro); number of cells expressing GFP divided by total number of nuclei (Hoechst)
Method in brief: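 Lipid + DOPE liposomes (NaOAc, pH 5.6) complexed w/ 75 ng psin-EGFP-IRES-Puro, 30 min RT; added to 3-5×10^4 HEK293/well, 37° C. Hoechst 0.2 μg/mL at 20-24 h, imaged after further 20-24 h. Efficiency = GFP+ cells / total nuclei.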

Row | SMILES | Absolute mRNA transfection efficiency in HEK293 cells (HEK293 cells [1]) | Absolute DNA transfection efficiency in HEK293 cells (HEK293 cells [2])
1 | CCCCCCCCCCCCCCCCNc1nc(NCCCCCCCCCCCCCCC)nc(NCCN2CCOCC2)n1 [Compound N15N16D2] | 0.0% | 0.0%
2 | CCCCCCCCCCCCCCCCCCNc1nc(NCCCCCCCCCCCC)nc(NCCCN(C)C)n1 [Compound N12N18D6] | 4.8% | 1.5%
3 | CCCCCCCCCCCCCCCSc1nc(NCCN(C)C)nc(SCCCCCCCCCCC)n1 [Compound S11S15D1] | 0.0% | 0.9%
4 | CCCCCCCCCCCCCNc1nc(NCCCCCCCCCCCC)nc(NCCCN2CCN(C)CC2)n1 [Compound N12N13D9] | 1.8% | 0.3%
5 | CCCCCCCCCCCCCCSc1nc(NCC2CCN(C)CC2)nc(SCCCCCCCC)n1 [Compound S8S14D10] | 60.5% | 41.1%
6 | CCCCCCCCCCCCCCCNc1nc(NCCCCCCCCC)nc(NCCN2CCOCC2)n1 [Compound N9N15D2] | 0.2% | 0.0%
7 | CCCCCCCCCCCCCCCCCCNc1nc(NCCCCCCCCCCCCC)nc(NCC2CCN(C)CC2)n1 [Compound N13N18D10] | 6.1% | 0.5%
8 | CCCCCCCCNc1nc(NCCCCCC)nc(NCCN2CCCCC2)n1 [Compound N6N8D4] | 0.0% | 0.0%
9 | CCCCCCCCCCCCCCCCCCNc1nc(NCCCCCCCCCCCCCCC)nc(NCCN(C)C)n1 [Compound N15N18D1] | 0.0% | 0.0%
10 | CCCCCCCCCCCCCCCCNc1nc(NCCCCCCCC)nc(NCCN(C)C)n1 [Compound N8N16D1] | 4.6% | 3.8%
11 | CCCCCCCCCCCCCNc1nc(NCCCCCCCCC)nc(NCCCN(C)C)n1 [Compound N9N13D6] | 0.4% | 0.0%
12 | CCCCCCCCCCCNc1nc(NCCCCCCC)nc(NCCN(CC)CC)n1 [Compound N7N11D7] | 0.0% | 0.0%
13 | CCCCCCCCCCCCCCCSc1nc(NCCCN(C)C)nc(SCCCCCCCCCCC)n1 [Compound S11S15D6] | 15.4% | 4.8%
14 | CCCCCCCCCCCCCCCCNc1nc(NCCCCCCCCCCCCC)nc(NCCN2CCN(C)CC2)n1 [Compound N13N16D5] | 0.4% | 0.0%
15 | CCCCCCCCCCCCCCCNc1nc(NCCCCCC)nc(NCCN2CCN(C)CC2)n1 [Compound N6N15D5] | 0.0% | 0.0%
16 | CCCCCCCCCCCCCNc1nc(NCCCCCCC)nc(NCCN2CCN(C)CC2)n1 [Compound N7N13D5] | 0.9% | 0.9%
17 | CCCCCCCCCCCCNc1nc(NCCCCCCCCCCC)nc(NCCCN2CCN(C)CC2)n1 [Compound N11N12D9] | 0.3% | 0.0%
18 | CCCCCCCCCCCCCCCCSc1nc(NCC2CCN(C)CC2)nc(SCCCCCCCCCCCC)n1 [Compound S12S16D10] | 13.2% | 7.3%
19 | CCCCCCCCCCCNc1nc(NCCCCCCCCC)nc(NCCCN(C)C)n1 [Compound N9N11D6] | 0.5% | 0.0%
20 | CCCCCCCCCCCCNc1nc(NCCCCCCCCCCCC)nc(NCCN2CCN(C)CC2)n1 [Compound N12N12D5] | 0.8% | 0.4%
21 | CCCCCCCCCCCCCCCCCCNc1nc(NCC2CCN(C)CC2)nc(N(CCCCCCCCCCCC)CCCCCCCCCCCC)n1 [N18^2N12D10] | 2.2% | 0.7%
22 | CCCCCCCCCCCCCCCCSc1nc(NCCCN2CCN(C)CC2)nc(SCCCCCCCCCCCCCC)n1 [Compound S14S16D9] | 0.0% | 0.0%
23 | CCCCCCCCCSc1nc(NCC2CCN(C)CC2)nc(SCCCCCCCCC)n1 [Compound S9S9D10] | 34.9% | 11.3%

Reference: patent publication US20230123334A1, “AMINO LIPID COMPOUND, PREPARATION METHOD THEREFOR, AND APPLICATION THEREOF” (SHENZHEN SHENXIN BIOTECHNOLOGY CO., LTD., priority 2020, published 2023)
